The text below walks through data of patent US20160075682A1, “INHIBITORS OF NICOTINAMIDE PHOSPHORIBOSYLTRANSFERASE, COMPOSITIONS, PRODUCTS AND USES THEREOF” (UNIVERSITÀ DEGLI STUDI DEL PIEMONTE ORIENTALE "AMEDEO …, priority 2013, published 2016).

One test relates to SH-SY5Y, HeLa. Briefly: MTT cell proliferation assay and trypan blue count (cell viability). Particulars: cells treated for 48 and 72 hours; read-out: IC50 values (inhibition of cellular proliferation, MTT assay and trypan blue assay). The format is cell-based. How it is done: Cell based assays were used to evaluate the possible cytotoxic effects of some compounds. To measure cytotoxic effects two different methods were used, a MTT cell proliferation assay and trypan blue count.
The Trypan blue assay is used to determine the number of viable cells present in a cell suspension. […] Briefly, 8×10^5 cells (SH-SY5Y, HeLa; obtained from ATCC, LGC standards, Sesto San Giovanni) were seeded in 24-well plates and treated for 48 and 72 hours. After the treatments, cells were stained with trypan blue and counted.
To analyze cell viability was used the colorimetric 3-(4,5-dimethylthiazol-2-yl)-2,5-diphenyltetrazolium bromide (MTT) method. The assay is based on the cleavage of the yellow tetrazolium salt MTT to purple formazan crystals by metabolic active cells. Since reduction of MTT can only occur in metabolically active cells, the level of activity is a measure of the viability of cells and conversely the cytotoxic effects of various treatments. Briefly, 8×10^5 cells (SH-SY5Y, code number CRL-2266; and HeLa, code number CCL-2) were seeded in 24-well plates and treated for 48 and 72 hours. Compounds were dissolved in DMSO and were added to the cells to give a final DMSO concentration no greater than 0.5%. Cells were washed once in Locke buffer and 300 μl of MTT (250 μg/ml in Locke buffer) were added before returning the cells to the incubator for 1 h to allow the formation of the purple formazan crystals. After 1 h, 600 μl of isopropanol/0.1 M HCl were added to each well, and the absorbance was read at 570 nm in a plate reader (Victor3V, PerkinElmer Life Sciences). For some compounds a dose response curve and IC50 for the effects on cell viability and proliferation were calculated. Cell lines used were originally purchased from ATCC (LGC standards. Sesto San Giovanni).
To evaluate the ability of each compound to inhibit cellular proliferation, cells were seeded in 24-well plates and treated for 48 and 72 hours. After the treatments the MTT assay and trypan blue assay were performed.

In another test the target is T1, NAMPT (Homo sapiens, UniProt P43490).
T1 construct: endogenous in cells; host or cells: SH-SY5Y and HeLa
Briefly: Direct inhibition of NAMPT enzymatic activity (Cyclex NAMPT colorimetric Assay Kit). The format is biochemical. The conditions noted are these: as assessed with a cycling assay. How it is done:
Determination of the direct activity of compounds on NAMPT was performed using a commercial kit, Cyclex NAMPT colorimetric Assay Kit.

In test [1] the test system is DNBS-induced colitis in BALB/c mice. Briefly: Experimental colitis induced by DNBS. The format is in vivo. The conditions noted are these: i.p. Here is the method: Animal work was authorized by the local ethical committee for animal studies (Università del Piemonte Orientale). BALB/c mice (Harlan Nossan, Milan, Italy) were anesthetized by enflurane. Dinitrobenzene sulfonic acid (DNBS; 4 mg in 100 μl of 50% ethanol) was injected into the rectum through a catheter inserted 4.5 cm proximally to the anus. Carrier alone (100 μl of 50% ethanol) was administered in control experiments. Thereafter, the animals were kept for 15 minutes in a Trendelenburg position to avoid reflux. Treatment with either solvent alone or drugs was done immediately after induction and thereafter twice a day. […] On Day 4, the animals were weighed and anaesthetized with chloral hydrate, and the abdomen was opened by a midline incision. The colon was removed, freed from surrounding tissues, opened along the antimesenteric border, rinsed, weighed, and processed for histology, biochemical measurements and immunohistochemistry. Colon damage (macroscopic damage score) was evaluated and scored by two independent observers according to the following criteria: 0, no damage; 1, localized hyperemia without ulcers; 2, linear ulcers with no significant inflammation; 3, linear ulcers with inflammation at one site; 4, two or more major sites of inflammation and ulceration extending >1 cm along the length of the colon; and 5-8, one point is added for each centimeter of ulceration beyond an initial 2 cm. Biochemical and histological analysis also included TNFalpha measurements and myeloperoxidase (MPO) measurements by ELISA assay, and VEGF, NAMPT, COX-2 measurements by immunoblotting. (Esposito E, Mazzon E, Paterniti I, Dal Toso R, Pressi G, Caminiti R, Cuzzocrea S. PPAR-alpha Contributes to the Anti-Inflammatory Activity of Verbascoside in a Model of Inflammatory Bowel Disease in Mice. PPAR Res. 2010; 2010:917312).
(§1) As previously described, the colon of DNBS- or dextran treated animals was removed after the induction of colitis. Compounds of formula (I) were administered intraperitoneally (i.p.).

In test [2] the test system is Dextran-induced colitis in C57/BJ6 mice. Briefly: Experimental colitis induced by dextran sulfate sodium (DSS). The format is in vivo. Particulars: i.p., doses of between 20 mg/Kg and 500 mg/Kg. How it is done: Animal work was authorized by the local ethical committee for animal studies (Università del Piemonte Orientale). Colitis was induced in C57/BJ6 mice (Harlan Nossan, Milan, Italy) by addition of DSS (2%) to their daily drinking water for 7 days followed by a 3-day recovery period without DSS. The severity of colitis was assessed using these set of criteria: (1) clinical index (daily changes in body weight; diarrhea and rectal bleeding); (2) macroscopic evidence of colitis (shortening of colon length). On day 10 of the experiment, animals were sacrificed. Treatments were performed with either solvent alone or drugs once a day for the entire duration of the experiments from day 1 to day 7. The colon lengths were measured and colon tissues were harvested for biochemical measurements, histopathological assessment and scoring. (Tang Y, Preuss F, Turek F W, Jakate S, Keshavarzian A. Sleep deprivation worsens inflammation and delays recovery in a mouse model of colitis. Sleep Med. 2009 June; 10(6):597-603).
as §1

Where [3] appears, read: DNBS-treated mice, between 20 mg/Kg and 500 mg/Kg, compared to untreated colitis mice.

Where only a bound is given, the exact number is not on record here.

T1 sequence (P43490 whole entry): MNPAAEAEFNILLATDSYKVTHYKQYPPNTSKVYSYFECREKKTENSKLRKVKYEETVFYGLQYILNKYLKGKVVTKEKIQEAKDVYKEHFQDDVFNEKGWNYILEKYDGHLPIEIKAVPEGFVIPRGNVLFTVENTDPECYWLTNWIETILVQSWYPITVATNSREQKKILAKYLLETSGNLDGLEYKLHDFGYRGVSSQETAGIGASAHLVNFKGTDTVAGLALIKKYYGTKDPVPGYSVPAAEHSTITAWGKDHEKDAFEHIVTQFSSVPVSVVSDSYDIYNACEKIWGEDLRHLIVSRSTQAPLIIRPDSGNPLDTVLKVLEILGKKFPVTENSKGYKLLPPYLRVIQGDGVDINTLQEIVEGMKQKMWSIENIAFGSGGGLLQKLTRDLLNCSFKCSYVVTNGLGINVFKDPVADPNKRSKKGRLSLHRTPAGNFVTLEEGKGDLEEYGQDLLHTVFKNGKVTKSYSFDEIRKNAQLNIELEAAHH

For `O=C(O)c1ccccc1-c1ccccc1C(=O)NCCCCCCCn1cc(-c2cccnc2)nn1` [2′-((7-(4-(pyridin-3-yl)-1H-1,2,3-triazol-1-yl)heptyl)carbamoyl)-[1,1′-biphenyl]-2-carboxylic acid], in the test with SH-SY5Y, HeLa, the IC50 was less than 300 nM. Also, at NAMPT, the “inhibition of the enzymatic activity of NAMPT” value is recorded as “able to inhibit”. In addition, in test [1] (setting [3]), the “MPO in the colon” value is “able to reduce”, the “NAMPT in the colon” value is “able to reduce”, the “TNFalpha in the colon” value is “able to reduce” and the “VEGF in the colon” value was “able to reduce”. Besides, in test [1] (doses of between 20 mg/Kg and 500 mg/Kg), the “protection from DNBS-induced colitis as assessed by the macroscopic damage score” value was “able to protect”. For the same compound, in test [2], the “protection from Dextran-induced colitis as assessed by the macroscopic damage score” value is “able to protect”.
